In ChEMBL document CHEMBL1138745, “Structural basis for the potent antisickling effect of a novel class of five-membered heterocyclic aldehydic compounds” (2004) one finds inhibition data, which are given here for 3 compounds.

Common to all, as to assay type: functional
Holding throughout (conditions): Homo sapiens

The nature of experiment [1]: Percent inhibition of sickling of sickle red blood (SS) cells under 4% oxygen was evaluated at 5 mM concentration.
Experiment [2] in a line: Percent inhibition of sickling of sickle red blood (SS) cells under 4% oxygen was evaluated at 1 mM concentration.
The nature of experiment [3]: Percent inhibition of sickling of sickle red blood (SS) cells under 4% oxygen was evaluated at 2 mM concentration.

In general, inhibition refers to the change of the read-out against control, counted positive when it falls. On to `O=Cc1ccc(CO)o1` [AES-103], for which, in experiment [1], 5000 µM produced 90% inhibition. The compound also displayed an inhibition at 1000 µM in experiment [2] of 13%. In experiment [3], the inhibition at 2000 µM amounted to 42%.

The compound `O=Cc1ccco1` [FURFURAL] came in with an inhibition at 5000 µM in experiment [1] of 30%. In experiment [2], testing at 1000 µM gave an inhibition of 0%. Also, the inhibition at 2000 µM in experiment [3] is 0%.

`COc1cc(C=O)ccc1O` [VANILLIN] registered an inhibition at 5000 µM in experiment [1] of 20%.
